The nature of the series: Lithium isotope levels in post-mortem neocortex (BA7), quadrupole inductively coupled plasma mass spectroscopy. An excerpt: Lithium (Li) isotope levels have been measured in post-mortem neocortex (BA7) of human subjects having bipolar disorder, without having bipolar disorder receiving lithium treatment at time of death. Neurologically intact individuals and subjects with schizophrenia were included as controls.
Bipolar brains show a 4% shift away from 7-Li within the total lithium content. Similar fractionation is not seen in schizophrenia or neurologically intact controls.

For the molecule `[7Li]` [7-Li], the “shift away from 7-Li within the total lithium content” value (bipolar brains, FIG. 2, deviation from environmental distribution) is given as 4%. For the same molecule, where the note is “schizophrenia or neurologically intact controls”, the “fractionation (shift away from 7-Li) in brain” value was “not seen”.
Turning to `[6Li]` [Li-6], the brain penetration entry (relative to Li-7, stated as applicants' discovery) is “better able to penetrate the brain”.

Source of the values: US20150342985A1, “COMPOSITIONS COMPRISING LITHIUM” (priority 2012, published 2015).
